Reference: US20110059035A1, “COMPOSITIONS BASED ON POLYMER/HYDROGEN PEROXIDE COMPLEXES AND USES THEREOF” (L"OREAL, priority 2008, published 2011)

Experiments:
[1] = Activator selection: pH of Peroxydone K-30 dispersion in water after addition of activator; type: physicochemical; details: for Associated pH: at the minimum amount of activator, 11 g of Peroxydone K-30 in 75 g of water; for Minimum amount in order to reach a pH > 9 or a plateau pH if pH < 9: initial amount of 11 g of Peroxydone K-30, i.e. 2 g of H2O2, in 75 g of water
Procedure: In the case of a PVP-H2O2 complex, the following protocol can be used to select the activators. A dispersion of 11 g of Peroxydone K-30® (ISP) in 75 g of water is produced, to which increasing amounts of activator are added. pH is measured immediately after each addition. The activator is added in excess until the activator/H2O2 ratio by weight reaches 10.

[2] = In vitro bleaching test on a dye (lightening activity); details: H2O2 4% or PVP-H2O2 22% (eq. 4% H2O2), 1 g in 19 g dye solution, pH 10.7, OD 630 nm
Procedure: Protocol for in vitro bleaching test Dye solution or “solution X” is a solution of disodium salt of brilliant blue FCF (CI: 42090) from LCW (Sensient). The dye solution is prepared as follows: 15 mg of dye powder are dissolved in 50 ml of borate buffer pH 10.7 and then again diluted to 1/50th. […] After stirring the mixture in the dark for 10 min, the dispersion is filtered (0.45 μm cellulose filter) and the optical density is measured over the range from 400 to 800 nm at 25° C. […] The decoloring effectiveness is reflected by the bleaching percentage at t=10 min (i.e. [ODt10 min (mixture)−ODt10 min (dye)/ODt0 (dye)]×100.

| SMILES | Associated pH [1] | Minimum amount in order to reach a pH > 9 or a plateau pH if pH < 9 [1] | bleaching percentage at t=10 min ([2]; dilution medium PEG-8) | bleaching percentage at t=10 min ([2]; dilution medium butylene glycol) | bleaching percentage at t=10 min ([2]; dilution medium ethanol) | bleaching percentage at t=10 min ([2]; dilution medium glycerol) |
| --- | --- | --- | --- | --- | --- | --- |
| [Ca+2].[O-][O-] [Calcium peroxide] | 9.3 | 0.05 g | – | – | – | – |
| OO [Product H2O2, hydrogen peroxide] | – | – | 61% | 63% | 72% | 27% |
| O=C([O-])O.[Na+] [Sodium bicarbonate] | 8.1 | 0.9 g | – | – | – | – |
| O=[Si]([O-])[O-].[Na+].[Na+] [Sodium metasilicate] | 9.8 | 0.11 g | – | – | – | – |
